Tests used:
[1] = target: Neprilysin (Canis familiaris); assay: Inhibition of dog NEP

## CCCC(CC1(C(=O)NC2(CO)Cc3ccccc3C2)CCCC1)C(=O)O (racemic) [rac-2-((1-((2-(hydroxymethyl)-2,3-dihydro-1H-inden-2-yl)carbamoyl)cyclopentyl)methyl)pentanoic acid]
Inhibition of dog ACE
  IC50: > 3000 nM

## CCCC(CC1(C(=O)Nc2nnc(CC)s2)CCCC1)C(=O)O (racemic) [rac-2-((1-((5-ethyl-1,3,4-thiadiazol-2-yl)carbamoyl)cyclopentyl)methyl)pentanoic acid]
Inhibition of dog ACE
  IC50: > 3000 nM

## CCCC(CC1(C(=O)Nc2nnc(C)s2)CCCC1)C(=O)O (racemic) [rac-2-((1-((5-methyl-1,3,4-thiadiazol-2-yl)carbamoyl)cyclopentyl)methyl)pentanoic acid]
Inhibition of dog ACE
  IC50: > 3000 nM

## CCCC(CC1(NC(=O)c2ccc(=O)n(Cc3ccccc3)c2)CCCC1)C(=O)O (stereo not given) [2-((1-(1-benzyl-2-oxo-1,2-dihydropyridine-5-carboxamido)cyclopentyl)methyl)pentanoic acid]
[1]
  IC50: > 3000 nM

## CCCC(CC1(c2nnc(-c3ccc(=O)n(Cc4ccccc4)c3)o2)CCCC1)C(=O)O (stereo not given) [2-((1-(5-(1-benzyl-6-oxo-1,6-dihydropyridin-3-yl)-1,3,4-oxadiazol-2-yl)cyclopentyl)methyl)pentanoic acid]
Inhibition of dog ACE
  IC50: > 3000 nM
[1]
  IC50: 1140 nM

## CCCC(CC1(c2nnc(Cc3ccccc3)o2)CCCC1)C(=O)O (stereo not given) [2-((1-(5-benzyl-1,3,4-oxadiazol-2-yl)cyclopentyl)methyl)pentanoic acid]
Inhibition of dog ACE
  IC50: > 3000 nM
[1]
  IC50: 3100 nM

## CCCC(CC1(C(=O)Nc2nncs2)CCCC1)C(=O)O (stereo not given) [2-((1-((1,3,4-thiadiazol-2-yl)carbamoyl)cyclopentyl)methyl)pentanoic acid]
Inhibition of dog ACE
  IC50: > 3000 nM

## CCCC(CC1(C(=O)NC2(CO)CCCC2)CCCC1)C(=O)O (stereo not given) [2-((1-((1-(hydroxymethyl)cyclopentyl)carbamoyl)cyclopentyl)methyl)pentanoic acid]
Inhibition of dog ACE
  IC50: > 3000 nM
[1]
  IC50: 1710 nM

## CCCC(CC1(C(=O)Nc2ccc(=O)n(Cc3ccccc3)c2)CCCC1)C(=O)O (stereo not given) [2-((1-((1-benzyl-6-oxo-1,6-dihydropyridin-3-yl)carbamoyl)cyclopentyl)methyl)pentanoic acid]
Inhibition of dog ACE
  IC50: > 3000 nM
[1]
  IC50: 313 nM

## CCCC(CC1(C(=O)Nc2cn(CC)nn2)CCCC1)C(=O)O (stereo not given) [2-((1-((1-ethyl-1H-1,2,3-triazol-4-yl)carbamoyl)cyclopentyl)methyl)pentanoic acid]
Inhibition of dog ACE
  IC50: > 3000 nM

## CCCC(CC1(C(=O)NC2Cc3ccccc3C2)CCCC1)C(=O)O (stereo not given) [2-((1-((2,3-dihydro-1H-inden-2-yl)carbamoyl)cyclopentyl)methyl)pentanoic acid]
Inhibition of dog ACE
  IC50: > 3000 nM

## CCCC(CC1(C(=O)NC2CCCC(C(=O)N(C)C)C2)CCCC1)C(=O)O (stereo not given) [2-((1-((3-(dimethylcarbamoyl)cyclohexyl)carbamoyl)cyclopentyl)methyl)pentanoic acid]
Inhibition of dog ACE
  IC50: > 3000 nM

## CCCC(CC1(C(=O)Nc2ncccc2CC)CCCC1)C(=O)O (stereo not given) [2-((1-((3-ethylpyridin-2-yl)carbamoyl)cyclopentyl)methyl)pentanoic acid]
[1]
  IC50: 1710 nM

## CCCNc1ccnc(NC(=O)C2(CC(CCC)C(=O)O)CCCC2)n1 (stereo not given) [2-((1-((4-(propylamino)pyrimidin-2-yl)carbamoyl)cyclopentyl)methyl)pentanoic acid]
Inhibition of dog ACE
  IC50: > 3000 nM
[1]
  IC50: > 2000 nM

## CCCC(CC1(C(=O)Nc2cc(Cc3ccccc3)ccn2)CCCC1)C(=O)O (stereo not given) [2-((1-((4-benzylpyridin-2-yl)carbamoyl)cyclopentyl)methyl)pentanoic acid]
Inhibition of dog ACE
  IC50: > 3000 nM
[1]
  IC50: 96 nM

## CCCCc1ccnc(NC(=O)C2(CC(CCC)C(=O)O)CCCC2)c1 (stereo not given) [2-((1-((4-butylpyridin-2-yl)carbamoyl)cyclopentyl)methyl)pentanoic acid]
Inhibition of dog ACE
  IC50: > 3000 nM
[1]
  IC50: 184 nM

## CCCC(CC1(C(=O)NCCc2ccc(Cl)cc2)CCCC1)C(=O)O (stereo not given) [2-((1-((4-chlorophenethyl)carbamoyl)cyclopentyl)methyl)pentanoic acid]
[1]
  IC50: > 2000 nM

## CCCC(CC1(C(=O)Nc2cc(C)ccn2)CCCC1)C(=O)O (stereo not given) [2-((1-((4-methylpyridin-2-yl)carbamoyl)cyclopentyl)methyl)pentanoic acid]
[1]
  IC50: 630 nM

## CCCC(CC1(C(=O)Nc2nnc(CC3CC3)s2)CCCC1)C(=O)O (stereo not given) [2-((1-((5-(cyclopropylmethyl)-1,3,4-thiadiazol-2-yl)carbamoyl)cyclopentyl)methyl)pentanoic acid]
Inhibition of dog ACE
  IC50: > 3000 nM

## CCCC(CC1(C(=O)Nc2nnc(Cc3ccccc3)s2)CCCC1)C(=O)O (stereo not given) [2-((1-((5-benzyl-1,3,4-thiadiazol-2-yl)carbamoyl)cyclopentyl)methyl)pentanoic acid]
Inhibition of dog ACE
  IC50: > 3000 nM

## CCc1nnc(NC(=O)C2(CC(CCc3ccccc3)C(=O)O)CCCC2)s1 (stereo not given) [2-((1-((5-ethyl-1,3,4-thiadiazol-2-yl)carbamoyl)cyclopentyl)methyl)-4-phenylbutanoic acid]
Inhibition of dog ACE
  IC50: > 3000 nM
[1]
  IC50: 46 nM

## CCc1nnc(NC(=O)C2(CC(CCC(C)C)C(=O)O)CCCC2)s1 (stereo not given) [2-((1-((5-ethyl-1,3,4-thiadiazol-2-yl)carbamoyl)cyclopentyl)methyl)-5-methylhexanoic acid]
Inhibition of dog ACE
  IC50: > 3000 nM

## CCCCC(CC1(C(=O)Nc2nnc(CC)s2)CCCC1)C(=O)O (stereo not given) [2-((1-((5-ethyl-1,3,4-thiadiazol-2-yl)carbamoyl)cyclopentyl)methyl)hexanoic acid]
Inhibition of dog ACE
  IC50: > 3000 nM

## CCCC(CC1(C(=O)Nc2nnc(CC(C)C)s2)CCCC1)C(=O)O (stereo not given) [2-((1-((5-isobutyl-1,3,4-thiadiazol-2-yl)carbamoyl)cyclopentyl)methyl)pentanoic acid]
Inhibition of dog ACE
  IC50: > 3000 nM
[1]
  IC50: 124 nM

## CCCC(CC1(C(=O)Nc2nnc(-c3ccccc3)s2)CCCC1)C(=O)O (stereo not given) [2-((1-((5-phenyl-1,3,4-thiadiazol-2-yl)carbamoyl)cyclopentyl)methyl)pentanoic acid]
Inhibition of dog ACE
  IC50: > 3000 nM

## CCCC(CC1(C(=O)Nc2cccc(CC)n2)CCCC1)C(=O)O (stereo not given) [2-((1-((6-ethylpyridin-2-yl)carbamoyl)cyclopentyl)methyl)pentanoic acid]
[1]
  IC50: > 2000 nM

## CCCC(CC1(C(=O)Nc2ccc(OC)nn2)CCCC1)C(=O)O (stereo not given) [2-((1-((6-methoxypyridazin-3-yl)carbamoyl)cyclopentyl)methyl)pentanoic acid]
Inhibition of dog ACE
  IC50: > 3000 nM

## CCCC(CC1(C(=O)N[C@@H]2CCCC[C@@H]2Cc2ccccc2)CCCC1)C(=O)O (stereo partly drawn) [2-((1-(((1R,2R)-2-benzylcyclohexyl)carbamoyl)cyclopentyl)methyl)pentanoic acid]
Inhibition of dog ACE
  IC50: > 3000 nM
[1]
  IC50: 195 nM

## CCCC(CC1(C(=O)N[C@@H]2CCCC[C@@H]2CCC)CCCC1)C(=O)O (stereo partly drawn) [2-((1-(((1R,2S)-2-propylcyclohexyl)carbamoyl)cyclopentyl)methyl)pentanoic acid]
Inhibition of dog ACE
  IC50: > 3000 nM

## CCCC(CC1(C(=O)N[C@@H]2CC[C@H](C(N)=O)C2)CCCC1)C(=O)O (stereo partly drawn) [2-((1-(((1R,3S)-3-carbamoylcyclopentyl)carbamoyl)cyclopentyl)methyl)pentanoic acid]
Inhibition of dog ACE
  IC50: > 3000 nM
[1]
  IC50: 213 nM

## CCCC(CC1(C(=O)NCc2nnc(C)s2)CCCC1)C(=O)O (stereo not given) [2-((1-(((5-methyl-1,3,4-thiadiazol-2-yl)methyl)carbamoyl)cyclopentyl)methyl)pentanoic acid]
Inhibition of dog ACE
  IC50: > 3000 nM

## CCCC(CC1(C(=O)N[C@@H]2CCN(Cc3ccccc3)C2)CCCC1)C(=O)O (stereo partly drawn) [2-((1-(((R)-1-benzylpyrrolidin-3-yl)carbamoyl)cyclopentyl)methyl)pentanoic acid]
Inhibition of dog ACE
  IC50: > 3000 nM
[1]
  IC50: 1060 nM

## CCCC(CC1(C(=O)N[C@H](C)c2ccccc2)CCCC1)C(=O)O (stereo partly drawn) [2-((1-(((R)-1-phenylethyl)carbamoyl)cyclopentyl)methyl)pentanoic acid]
Inhibition of dog ACE
  IC50: > 3000 nM

## CCCC(CC1(C(=O)N[C@H](CO)Cc2ccccc2)CCCC1)C(=O)O (stereo partly drawn) [2-((1-(((S)-1-hydroxy-3-phenylpropan-2-yl)carbamoyl)cyclopentyl)methyl)pentanoic acid]
Inhibition of dog ACE
  IC50: > 3000 nM
[1]
  IC50: 384 nM

## CCCC(CC1(C(=O)NCc2ccc3c(c2)OCO3)CCCC1)C(=O)O (stereo not given) [2-((1-((benzo[d][1,3]dioxol-5-ylmethyl)carbamoyl)cyclopentyl)methyl)pentanoic acid]
Inhibition of dog ACE
  IC50: > 3000 nM

## CCCC(CC1(C(=O)Nc2ccccn2)CCCC1)C(=O)O (stereo not given) [2-((1-(pyridin-2-ylcarbamoyl)cyclopentyl)methyl)pentanoic acid]
Inhibition of dog ACE
  IC50: > 3000 nM

## CCc1nnc(NC(=O)C2(CCC(=O)O)CCCC2)s1 [3-(1-((5-ethyl-1,3,4-thiadiazol-2-yl)carbamoyl)cyclopentyl)propanoic acid]
Inhibition of dog ACE
  IC50: > 3000 nM
[1]
  IC50: 237 nM

## CCC[C@H](CC1(C(=O)NC2(CO)Cc3ccccc3C2)CCCC1)C(=O)O [(R)-2-((1-((2-(hydroxymethyl)-2,3-dihydro-1H-inden-2-yl)carbamoyl)cyclopentyl)methyl)pentanoic acid]
Inhibition of dog ACE
  IC50: > 3000 nM

## CCC[C@H](CC1(C(=O)Nc2nnc(CC)s2)CCCC1)C(=O)O [(R)-2-((1-((5-ethyl-1,3,4-thiadiazol-2-yl)carbamoyl)cyclopentyl)methyl)pentanoic acid]
Inhibition of dog ACE
  IC50: > 3000 nM

## CCC[C@H](CC1(C(=O)Nc2nnc(C)s2)CCCC1)C(=O)O [(R)-2-((1-((5-methyl-1,3,4-thiadiazol-2-yl)carbamoyl)cyclopentyl)methyl)pentanoic acid]
Inhibition of dog ACE
  IC50: > 3000 nM

## CCC[C@@H](CC1(C(=O)NC2(CO)Cc3ccccc3C2)CCCC1)C(=O)O [(S)-2-((1-((2-(hydroxymethyl)-2,3-dihydro-1H-inden-2-yl)carbamoyl)cyclopentyl)methyl)pentanoic acid]
Inhibition of dog ACE
  IC50: > 3000 nM

## CCC[C@@H](CC1(C(=O)Nc2nnc(CC)s2)CCCC1)C(=O)O [(S)-2-((1-((5-ethyl-1,3,4-thiadiazol-2-yl)carbamoyl)cyclopentyl)methyl)pentanoic acid]
Inhibition of dog ACE
  IC50: > 3000 nM

## CCC[C@@H](CC1(C(=O)Nc2nnc(C)s2)CCCC1)C(=O)O [(S)-2-((1-((5-methyl-1,3,4-thiadiazol-2-yl)carbamoyl)cyclopentyl)methyl)pentanoic acid]
Inhibition of dog ACE
  IC50: > 5000 nM

## CCCC(CC1(C(=O)N[C@H]2CC[C@@H](C(=O)N(C)C)CC2)CCCC1)C(=O)O (stereo partly drawn) [cis-2-((1-((4-(dimethylcarbamoyl)cyclohexyl)carbamoyl)cyclopentyl)methyl)pentanoic acid]
Inhibition of dog ACE
  IC50: > 3000 nM

## CCCC(CC1(C(=O)N[C@H]2CC[C@@H](C(N)=O)CC2)CCCC1)C(=O)O (stereo partly drawn) [cis-2-((1-((4-carbamoylcyclohexyl)carbamoyl)cyclopentyl)methyl)pentanoic acid]
Inhibition of dog ACE
  IC50: > 3000 nM
[1]
  IC50: 150 nM
